# Assay results from paper PMC6628624 (Toxins, 2019).
# Where two headings read alike, the source gives them in different places.
# Columns and labels:
# [1] = in vivo
# Caco-2 cells [2] = details: human
# in vivo = details: male, Landrace × Large White × Duroc, pig, 0.1 mg/kg
# in vitro = details: human, Caco-2, Papp (apparent permeability coefficient)
# mice = details: mouse, in vivo, cited from earlier work
# [3] = rat, in vivo, sc; cited from earlier work
# rats = details: rat, in vivo; cited from earlier work
# [4] = pig, in vivo; cited from earlier work
# Caco-2 cells [5] = details: cited from earlier work
# [6] = monkey, in vivo; cited from earlier work
# [7] = rat, in vivo; cited from earlier work
# [8] = male, Landrace × Large White × Duroc, swine, 0.1 mg/kg
# [9] = male, Landrace × Large White × Duroc, swine, po, 0.1 mg/kg
compound,measurement,setting,value
"COc1cc(=O)oc(/C=C/C=C/C=C/C(C)=C/[C@]2(C)O[C@H](C)[C@](C)(O)[C@H]2O)c1C [CTVD, Citreoviridin]",adverse clinical signs,[1],None
same,plasma CTVD concentration until 3 h after PO,"[1]; po, 0.1 mg/kg",almost no increase
same,time to eliminate CTVD in plasma,"[1]; male, Landrace × Large White × Duroc, swine",more than 40 h
same,F (bioavailability calculated using mean AUC∞ after PO and IV),[1]; [8],116.4%
same,Ft (bioavailability calculated using mean AUCt after PO and IV),[1]; [8],79.3%
same,Vd (apparent volume of distribution),"[1]; male, Landrace × Large White × Duroc, swine, iv, 0.1 mg/kg",1.5 ± 0.2 L
same,extrapolation estimate of AUC (from 48 h to infinity) relative to AUCt,"[1]; male, Landrace × Large White × Duroc, swine, po",68 % of AUCt
same,Kel (rate constant),[1]; [9],0.4 ± 0.2 ×10^−1 h^−1
same,Vd/F (apparent volume of distribution),[1]; [9],1.7 ± 0.3 L
same,Papp (apparent permeability coefficient),Caco-2 cells [2],42.6 ± 17.7 ×10^−6 cm/s
same,AUC(0-inf),in vivo; iv,1510 ± 332 ng·h/mL
same,AUC(0-t),in vivo; iv,1320 ± 224 ng·h/mL
same,MRT,in vivo; iv,14.6 ± 1.2 h
same,half-life,in vivo; iv,972 ± 258 min
same,AUC(0-inf),in vivo; po,1760 ± 814 ng·h/mL
same,AUC(0-t),in vivo; po,1050 ± 181 ng·h/mL
same,Cmax,in vivo; po,38.2 ± 6.7 ng/mL
same,MRT,in vivo; po,19.6 ± 4 h
same,Tmax,in vivo; po,15 ± 6 h
same,half-life,in vivo; po,1280 ± 762 min
same,Papp,in vitro,52.2 ± 28.3 ×10⁻⁶ cm/s
same,LD50 (lethal dose 50%),mice; ip,7.5 mg/kg
same,LD50 (lethal dose 50%),mice; sc,3.6 to 11.8 mg/kg
same,CTVD still detected in the liver after 52 h,[3],< 1 % of the total administered dose
same,persistence of CTVD in organs at 52 h,[3],"remained in the liver, kidney, and heart"
same,time at which the concentration of CTVD was highest in the liver,[3],8 h
same,outcome of chronic low-dose administration,rats,rats died
CCCC[C@@H](C)[C@@H](OC(=O)C[C@@H](CC(=O)O)C(=O)O)[C@H](C[C@@H](C)C[C@H](O)CCCC[C@@H](O)C[C@H](O)[C@H](C)N)OC(=O)C[C@@H](CC(=O)O)C(=O)O [fumonisin B1],elimination half-life,[4],3.03 h
C[C@H]1CCCC(=O)CCC/C=C/c2cc(O)cc(O)c2C(=O)O1 [zearalenone],bioavailability,[4],80–85%
same,Papp,Caco-2 cells [5]; Caco-2,10.4 ± 4.7 × 10^−6 cm/s
C[C@@H]1Cc2c(Cl)cc(C(=O)N[C@@H](Cc3ccccc3)C(=O)O)c(O)c2C(=O)O1 [ochratoxin A],bioavailability,[4],65.7%
same,elimination half-life,[4],84.5 h
same,elimination half-life,[6],35 days
CC1=C[C@H]2O[C@@H]3[C@H](O)C[C@](C)([C@@]2(CO)[C@H](O)C1=O)[C@]31CO1 [deoxynivalenol],bioavailability,[4],48–109.8%
same,elimination half-life,[4],7.2 to 15.2 h
same,Papp,Caco-2 cells [5]; Caco-2,0.19 ± 0.02 × 10^−6 cm/min
aflatoxin M1,Papp,Caco-2 cells [5],105.10 ± 7.98 ×10^−6 cm/s
aflatoxin B1,elimination half-life,[7],91.8 h
